# Source: ChEMBL document CHEMBL4402545, “Subtype Selective γ-Aminobutyric Acid Type A Receptor (GABAAR) Modulators Acting at the Benzodiazepine Binding Site: An Update” (J Med Chem, 2020)
# pKi: −log10 of the molar value.
# What was measured:
# [1] = molecular target: T1, GABA-A receptor; alpha-5/beta-3/gamma-2 (Homo sapiens, UniProt P18507+P28472+P31644); experiment: Displacement of [3H]-flumazenil from human GABAA alpha5beta3gamma2 expressed in Ltk cells; format: cell-based
# T1 sequence (P18507 whole entry): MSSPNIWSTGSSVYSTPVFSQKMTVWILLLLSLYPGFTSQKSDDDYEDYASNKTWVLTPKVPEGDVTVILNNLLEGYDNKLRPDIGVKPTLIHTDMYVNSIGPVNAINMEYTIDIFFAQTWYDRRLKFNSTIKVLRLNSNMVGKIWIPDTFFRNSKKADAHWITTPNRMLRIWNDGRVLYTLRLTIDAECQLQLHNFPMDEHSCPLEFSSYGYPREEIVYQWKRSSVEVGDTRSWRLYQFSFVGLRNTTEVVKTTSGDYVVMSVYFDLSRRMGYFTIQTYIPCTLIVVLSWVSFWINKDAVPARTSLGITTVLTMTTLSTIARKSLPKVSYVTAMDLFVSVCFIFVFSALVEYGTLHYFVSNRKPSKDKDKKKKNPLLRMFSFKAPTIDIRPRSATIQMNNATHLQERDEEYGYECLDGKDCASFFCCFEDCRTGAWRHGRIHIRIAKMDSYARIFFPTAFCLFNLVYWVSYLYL
# T1 sequence (P28472 whole entry): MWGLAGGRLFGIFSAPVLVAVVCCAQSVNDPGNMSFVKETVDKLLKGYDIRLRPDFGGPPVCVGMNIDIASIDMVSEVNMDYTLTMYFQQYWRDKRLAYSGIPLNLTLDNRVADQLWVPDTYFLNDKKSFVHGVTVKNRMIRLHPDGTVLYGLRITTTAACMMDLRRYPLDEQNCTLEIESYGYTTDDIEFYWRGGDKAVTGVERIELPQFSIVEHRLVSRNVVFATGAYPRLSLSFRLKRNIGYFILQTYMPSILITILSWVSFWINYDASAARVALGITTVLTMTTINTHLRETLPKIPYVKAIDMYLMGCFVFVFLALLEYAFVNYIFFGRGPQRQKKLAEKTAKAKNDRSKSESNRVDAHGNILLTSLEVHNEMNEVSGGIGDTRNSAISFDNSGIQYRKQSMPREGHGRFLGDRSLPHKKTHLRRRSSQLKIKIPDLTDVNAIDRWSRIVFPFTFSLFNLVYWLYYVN
# T1 sequence (P31644 whole entry): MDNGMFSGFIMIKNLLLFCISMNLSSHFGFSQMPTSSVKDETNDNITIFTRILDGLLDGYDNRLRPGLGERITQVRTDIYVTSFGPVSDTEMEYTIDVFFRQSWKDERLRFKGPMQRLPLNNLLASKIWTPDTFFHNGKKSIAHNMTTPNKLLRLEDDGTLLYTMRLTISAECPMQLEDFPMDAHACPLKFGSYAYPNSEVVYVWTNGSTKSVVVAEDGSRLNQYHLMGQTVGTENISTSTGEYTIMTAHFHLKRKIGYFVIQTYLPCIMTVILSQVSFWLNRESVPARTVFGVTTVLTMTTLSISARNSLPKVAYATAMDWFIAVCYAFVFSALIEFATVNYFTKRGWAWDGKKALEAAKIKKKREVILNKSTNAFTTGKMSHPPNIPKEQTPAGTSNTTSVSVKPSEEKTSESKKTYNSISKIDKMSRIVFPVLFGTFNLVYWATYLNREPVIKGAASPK
# [2] = molecular target: T2, Gamma-aminobutyric acid receptor subunit alpha-2 (Homo sapiens) (UniProt P47869); experiment: Binding affinity to GABA-A alpha2 (unknown origin) assessed as increase in induced current relative to control
# T2 sequence (whole entry): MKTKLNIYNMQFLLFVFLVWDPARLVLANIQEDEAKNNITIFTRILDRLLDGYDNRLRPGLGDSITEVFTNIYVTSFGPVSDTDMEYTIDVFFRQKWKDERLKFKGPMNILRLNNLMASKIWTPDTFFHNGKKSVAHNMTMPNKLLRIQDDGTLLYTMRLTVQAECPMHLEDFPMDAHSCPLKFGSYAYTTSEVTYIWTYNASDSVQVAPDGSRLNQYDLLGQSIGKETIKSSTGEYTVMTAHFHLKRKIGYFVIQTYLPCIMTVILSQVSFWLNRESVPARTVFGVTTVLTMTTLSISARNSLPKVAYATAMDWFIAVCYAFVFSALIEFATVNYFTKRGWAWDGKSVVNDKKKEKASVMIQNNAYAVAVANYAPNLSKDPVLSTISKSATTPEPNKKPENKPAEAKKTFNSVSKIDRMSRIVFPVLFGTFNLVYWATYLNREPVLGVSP
# [3] = molecular target: T3, GABA-A receptor; alpha-3/beta-3/gamma-2 (Homo sapiens, UniProt P18507+P28472+P34903); experiment: Displacement of [3H]-flumazenil from human GABAA alpha3beta3gamma2 expressed in Ltk cells; format: cell-based
# T3 sequence (P18507 whole entry): T1 sequence (P18507 whole entry)
# T3 sequence (P28472 whole entry): T1 sequence (P28472 whole entry)
# T3 sequence (P34903 whole entry): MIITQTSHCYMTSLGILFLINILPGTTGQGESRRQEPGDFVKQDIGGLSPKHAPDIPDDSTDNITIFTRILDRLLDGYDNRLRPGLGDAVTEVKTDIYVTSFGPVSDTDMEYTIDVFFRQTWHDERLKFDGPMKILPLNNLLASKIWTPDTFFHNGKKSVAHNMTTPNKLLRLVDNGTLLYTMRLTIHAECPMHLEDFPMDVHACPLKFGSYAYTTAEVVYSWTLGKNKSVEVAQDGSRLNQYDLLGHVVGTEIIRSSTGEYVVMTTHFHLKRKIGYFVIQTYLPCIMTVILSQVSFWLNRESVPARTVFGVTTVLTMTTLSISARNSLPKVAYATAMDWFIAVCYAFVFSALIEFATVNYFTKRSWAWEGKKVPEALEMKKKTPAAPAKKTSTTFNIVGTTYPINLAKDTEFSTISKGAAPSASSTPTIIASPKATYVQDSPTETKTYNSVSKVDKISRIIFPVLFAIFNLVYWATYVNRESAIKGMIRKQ
# [4] = molecular target: T4, Gamma-aminobutyric acid receptor subunit alpha-5 (Homo sapiens) (UniProt P31644); experiment: Binding affinity to GABA-A alpha5 (unknown origin) assessed as increase in induced current relative to control
# T4 sequence (whole entry): T1 sequence (P31644 whole entry)
# [5] = molecular target: T5, Gamma-aminobutyric acid receptor subunit alpha-3 (Homo sapiens) (UniProt P34903); experiment: Binding affinity to GABA-A alpha3 (unknown origin) assessed as increase in induced current relative to control
# T5 sequence (whole entry): T3 sequence (P34903 whole entry)
# [6] = molecular target: T6, Gamma-aminobutyric acid receptor subunit alpha-1 (Homo sapiens) (UniProt P14867); experiment: Binding affinity to GABA-A alpha1 (unknown origin) assessed as increase in induced current relative to control
# T6 sequence (whole entry): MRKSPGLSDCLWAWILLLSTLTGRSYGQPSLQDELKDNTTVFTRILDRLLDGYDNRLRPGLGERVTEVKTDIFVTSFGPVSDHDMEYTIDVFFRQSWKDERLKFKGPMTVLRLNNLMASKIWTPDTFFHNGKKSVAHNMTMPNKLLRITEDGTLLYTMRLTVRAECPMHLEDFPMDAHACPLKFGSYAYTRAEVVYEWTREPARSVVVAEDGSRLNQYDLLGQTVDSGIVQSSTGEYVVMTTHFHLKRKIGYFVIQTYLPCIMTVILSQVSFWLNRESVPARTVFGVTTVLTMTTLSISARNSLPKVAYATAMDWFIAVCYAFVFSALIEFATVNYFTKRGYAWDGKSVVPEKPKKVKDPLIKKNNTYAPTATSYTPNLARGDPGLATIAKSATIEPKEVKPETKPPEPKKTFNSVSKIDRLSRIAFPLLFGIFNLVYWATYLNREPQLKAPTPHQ
# [7] = molecular target: T7, GABA-A receptor; alpha-1/beta-3/gamma-2 (Homo sapiens, UniProt P14867+P18507+P28472); experiment: Displacement of [3H]-flumazenil from human GABAA alpha1beta3gamma2 expressed in Ltk cells; format: cell-based
# T7 sequence (P14867 whole entry): T6 sequence (whole entry)
# T7 sequence (P18507 whole entry): T1 sequence (P18507 whole entry)
# T7 sequence (P28472 whole entry): T1 sequence (P28472 whole entry)
# Rattus norvegicus [8] = experiment: In vivo receptor occupancy at GABAA receptor in po dosed rat assessed as brain concentration causing 50% reduction in [3H]-flumazenil receptor labeling after 18 hrs by scintillation counting method; format: functional
# Homo sapiens = experiment: In vivo receptor occupancy at GABAA receptor in human assessed as plasma concentration causing reduction in [11C]-flumazenil receptor labeling at 9 ng/ml by PET method relative to control; format: functional
# Rattus norvegicus [9] = experiment: In vivo receptor occupancy at GABAA receptor in po dosed rat assessed as plasma concentration causing 50% reduction in [3H]-flumazenil receptor labeling by scintillation counting method; format: functional
SMILES,pKi [1],fold change (FC) [2],pKi [3],fold change (FC) [4],fold change (FC) [5],fold change (FC) [6],pKi [7],Occ50 (Rattus norvegicus [8]),Occ (Homo sapiens),Occ50 (Rattus norvegicus [9])
Cn1ncnc1COc1nn2c(-c3cc(F)ccc3F)nnc2cc1C(C)(C)C,8.65,0.43,9.17,0.39,0.43,0.02,9.10,–,–,–
CCn1ncnc1COc1nn2c(-c3ccccc3F)nnc2cc1C(C)(C)C [MK-0777],–,–,–,–,–,–,–,0.42 mg/kg,50%,25 ng/mL
